Legend:
Format in all cases: in vivo
[1] = test system: Amaranthus palmeri (AMAPA); experiment: Example 1 post-emergence field trial (1% MSO); details: 20-21 DAT, B-2 735 g ai/ha
Method: (§1) In the examples below, using the method of S. R. Colby (1967) “Calculating synergistic and antagonistic responses of herbicide combinations”, Weeds 15, p. 22ff., the value E, which is expected if the activity of the individual active compounds is only additive, was calculated:
(§2) [formula] • where • X=percent activity using active herbicide A at an application rate a; • Y=percent activity using active herbicide B (e.g. DMTA-p) at an application rate b; • E=expected activity (in %) by A+B at application rates a+b.
(§3) If the value found experimentally is higher than the value E calculated according to Colby, a synergistic effect is present.
(§4) On field test sites, natural weed infestation or seeded weeds were treated post-emergence of the weeds.
(§5) In the field trials, the weeds were treated as indicated below.
(§6) In the following experiments, the herbicidal activity for the individual herbicidal compositions (solo and mixture applications) was assessed at the indicated days after treatment (DAT). The assessments for the damage on undesired weeds caused by the composition was carried out using a scale from 0 to 100%, compared to the untreated control plants. Here, 0 means no damage and 100 means complete destruction of the plants.
(§7) Post-Emergence Application of Herbicide A-1 (A-1) and Dimethenamid-P (DMTA-p; B-2) in Field Trials
(§8) Herbicide A-1 (100 g/l) and DMTA-p (720 g/l) were, together with addition of 1% MSO (methylated sed oil) as adjuvant, formulated in water as distribution medium (water volume 200 l/ha) and sprayed with commercial flat fan nozzles.

[2] = test system: Amaranthus tamariscinus (AMATA); experiment: Example 1 post-emergence field trial (1% MSO); details: height 20-25 cm, 20-21 DAT, A-1 20 g ai/ha, B-2 735 g ai/ha
Method: as §1, §2, §3, §4, §5, §6, §7, §8

[3] = test system: Digitaria sanguinalis (DIGSA); experiment: Example 1 post-emergence field trial (1% MSO); details: height 2-13 cm, 20-21 DAT, A-1 20 g ai/ha, B-2 735 g ai/ha
Method: as §1, §2, §3, §4, §5, §6, §7, §8

[4] = test system: Echinochloa crus-galli (ECHCG); experiment: Example 1 post-emergence field trial (1% MSO); details: height 10-15 cm, 20-21 DAT, B-2 735 g ai/ha
Method: as §1, §2, §3, §4, §5, §6, §7, §8

Helanthus annuus (HELAN) [5] = experiment: Example 1 post-emergence field trial (1% MSO); details: height 20-25 cm, 20-21 DAT, A-1 20 g ai/ha, B-2 735 g ai/ha
Method: as §1, §2, §3, §4, §5, §6, §7, §8

Setaria faberi (SETFA) = experiment: Example 1 post-emergence field trial (1% MSO); details: height 7-13 cm, 20-21 DAT, A-1 20 g ai/ha, B-2 735 g ai/ha
Method: as §1, §2, §3, §4, §5, §6, §7, §8

Setaria viridis (SETVI) = experiment: Example 1 post-emergence field trial (1% MSO); details: height 7-13 cm, 20-21 DAT, A-1 20 g ai/ha, B-2 735 g ai/ha
Method: as §1, §2, §3, §4, §5, §6, §7, §8

Sorghum bicolor (SORVU) [6] = experiment: Example 1 post-emergence field trial (1% MSO); details: height 25-30 cm, 20-21 DAT, A-1 30 g ai/ha, B-2 735 g ai/ha
Method: as §1, §2, §3, §4, §5, §6, §7, §8

[7] = test system: Abutilon theophrasti (ABUTH); experiment: Example 2 post-emergence field trial (1% MSO and AMS); details: height 10-20 cm, 21-24 DAT, A-1 12.5 g ai/ha, B-2 735 g ai/ha
Method: as §1, §2, §3, §4, §5, §6, §7
(§9) Herbicide A-1 (100 g/l) and DMTA-p (720 g/l) were, together with addition of 1% MSO (methylated sed oil) and AMS (ammonium sulfate) as adjuvant, formulated in water as distribution medium (water volume 200 l/ha) and sprayed with commercial flat fan nozzles.

[8] = test system: Amaranthus palmeri (AMAPA); experiment: as above; details: B-2 735 g ai/ha
Method: as §1, §2, §3, §4, §5, §6, §7, §9

[9] = test system: Amaranthus retroflexus (AMARE); experiment: as above; details: B-2 735 g ai/ha
Method: as §1, §2, §3, §4, §5, §6, §7, §9

[10] = test system: Amaranthus tamariscinus (AMATA); experiment: as above; details: B-2 735 g ai/ha
Method: as §1, §2, §3, §4, §5, §6, §7, §9

[11] = test system: Chenopodium album (CHEAL); experiment: as above; details: height 17-23 cm, 21-24 DAT, A-1 12.5 g ai/ha, B-2 735 g ai/ha
Method: as §1, §2, §3, §4, §5, §6, §7, §9

[12] = test system: Digitaria sanguinalis (DIGSA); experiment: as above; details: height 2-8 cm, 18-21 DAT, A-1 25 g ai/ha, B-2 735 g ai/ha
Method: as §1, §2, §3, §4, §5, §6, §7, §9

[13] = test system: Echinochloa crus-galli (ECHCG); experiment: as above; details: height 7-15 cm, 18-21 DAT, B-2 735 g ai/ha
Method: as §1, §2, §3, §4, §5, §6, §7, §9

Eleusine indica (ELEIN) [14] = experiment: as above; details: B-2 735 g ai/ha
Method: as §1, §2, §3, §4, §5, §6, §7, §9

[15] = test system: Portulaca oleracea (POROL); experiment: as above; details: B-2 735 g ai/ha
Method: as §1, §2, §3, §4, §5, §6, §7, §9

Glycine max (GLXMA) [16] = experiment: Example 3 post-emergence field trial, volunteer crop plants (1% MSO); details: height 6-15 cm, 20 DAT, A-1 30 g ai/ha, B-2 735 g ai/ha
Method: as §1, §2, §3, §4, §5, §6, §7, §8

Zea mays (ZEAMX) [17] = experiment: as above; details: height 43-51 cm, 20 DAT, B-2 735 g ai/ha
Method: as §1, §2, §3, §4, §5, §6, §7, §8

Eleusine indica (ELEIN) [18] = experiment: Example 4 post-emergence field trial (1% MSO and AMS); details: height 15-20 cm, 21-24 DAT, A-1 12.5 g ai/ha, B-2 735 g ai/ha
Method: as §1, §2, §3, §4, §5, §6, §7, §9

Glycine max (GLXMA) [19] = experiment: as above; details: 21-24 DAT, A-1 12.5 g ai/ha, B-2 735 g ai/ha
Method: as §1, §2, §3, §4, §5, §6, §7, §9

Helanthus annuus (HELAN) [20] = experiment: as above; details: height 10-20 cm, 20 DAT, A-1 12.5 g ai/ha, B-2 735 g ai/ha
Method: as §1, §2, §3, §4, §5, §6, §7, §9

Sorghum bicolor (SORVU) [21] = experiment: as above; details: height 15-20 cm, 20 DAT, A-1 12.5 g ai/ha, B-2 735 g ai/ha
Method: as §1, §2, §3, §4, §5, §6, §7, §9

Zea mays (ZEAMX) [22] = experiment: as above; details: 21-24 DAT, B-2 735 g ai/ha
Method: as §1, §2, §3, §4, §5, §6, §7, §9

[23] = height 10-18 cm, A-1 20 g ai/ha
[24] = height 10-18 cm, A-1 30 g ai/ha
[25] = height 7-15 cm, 18-21 DAT, A-1 12.5 g ai/ha
[26] = height 7-15 cm, 18-21 DAT, A-1 25 g ai/ha
[27] = height 20-25 cm, 21-24 DAT, A-1 12.5 g ai/ha
[28] = height 10-20 cm, 21-24 DAT, A-1 25 g ai/ha
[29] = height 17-28 cm, 21-24 DAT, A-1 12.5 g ai/ha
[30] = height 5-13 cm, 18-21 DAT, A-1 12.5 g ai/ha
[31] = height 7-10 cm, 18-21 DAT, A-1 12.5 g ai/ha
[32] = height 7-10 cm, 18-21 DAT, A-1 25 g ai/ha
[33] = height 15-20 cm, 21-24 DAT, A-1 25 g ai/ha
[34] = height 2-13 cm, 18-21 DAT, A-1 25 g ai/ha
[35] = height 10-20 cm, 21-24 DAT, A-1 12.5 g ai/ha

## COC[C@H](C)N(C(=O)CCl)c1c(C)csc1C [B-2, dimethenamid-P]
[1]; height 2-12 cm, A-1 20 g ai/ha
  % herbicidal activity: 37%
[1]; height 2-12 cm, A-1 30 g ai/ha
  % herbicidal activity: 37%
[1]; [23]
  % herbicidal activity: 0%
[1]; [24]
  % herbicidal activity: 0%
[2]
  % herbicidal activity: 0%
[3]
  % herbicidal activity: 0%
[4]; A-1 20 g ai/ha
  % herbicidal activity: 0%
[4]; A-1 30 g ai/ha
  % herbicidal activity: 0%
Helanthus annuus (HELAN) [5]
  % herbicidal activity: 0%
Setaria faberi (SETFA)
  % herbicidal activity: 0%
Setaria viridis (SETVI)
  % herbicidal activity: 0%
Sorghum bicolor (SORVU) [6]
  % herbicidal activity: 0%
[7]
  % herbicidal activity: 35%
[8]; [25]
  % herbicidal activity: 0%
[8]; [26]
  % herbicidal activity: 0%
[8]; [27]
  % herbicidal activity: 0%
[9]; [26]
  % herbicidal activity: 0%
[9]; [28]
  % herbicidal activity: 47%
[9]; [29]
  % herbicidal activity: 0%
[10]; [30]
  % herbicidal activity: 15%
[10]; [26]
  % herbicidal activity: 0%
[10]; [28]
  % herbicidal activity: 47%
[10]; [29]
  % herbicidal activity: 0%
[11]
  % herbicidal activity: 0%
[12]
  % herbicidal activity: 5%
[13]; A-1 12.5 g ai/ha
  % herbicidal activity: 0%
[13]; A-1 25 g ai/ha
  % herbicidal activity: 0%
Eleusine indica (ELEIN) [14]; [31]
  % herbicidal activity: 0%
Eleusine indica (ELEIN) [14]; [32]
  % herbicidal activity: 0%
Eleusine indica (ELEIN) [14]; [33]
  % herbicidal activity: 0%
[15]; [34]
  % herbicidal activity: 7%
[15]; [35]
  % herbicidal activity: 28%
[15]; [28]
  % herbicidal activity: 28%
Glycine max (GLXMA) [16]
  % herbicidal activity: 0%
Zea mays (ZEAMX) [17]; A-1 20 g ai/ha
  % herbicidal activity: 0%
Zea mays (ZEAMX) [17]; A-1 30 g ai/ha
  % herbicidal activity: 0%
Eleusine indica (ELEIN) [18]
  % herbicidal activity: 0%
Glycine max (GLXMA) [19]
  % herbicidal activity: 0%
Helanthus annuus (HELAN) [20]
  % herbicidal activity: 0%
Sorghum bicolor (SORVU) [21]
  % herbicidal activity: 0%
Zea mays (ZEAMX) [22]; A-1 12.5 g ai/ha
  % herbicidal activity: 0%
Zea mays (ZEAMX) [22]; A-1 25 g ai/ha
  % herbicidal activity: 0%

## CCOC(=O)COc1ccccc1Oc1nc(-n2c(=O)cc(C(F)(F)F)n(C)c2=O)c(F)cc1Cl [A-1, ethyl 2-[2-[[3-chloro-5-fluoro-6-[3-methyl-2,6-dioxo-4-(trifluoromethyl)pyrimidin-1-yl]-2-pyridyl]oxy]phenoxy]acetate]
[1]; height 2-12 cm, A-1 20 g ai/ha
  % herbicidal activity: 99%
[1]; height 2-12 cm, A-1 30 g ai/ha
  % herbicidal activity: 99%
[1]; [23]
  % herbicidal activity: 77%
[1]; [24]
  % herbicidal activity: 80%
[2]
  % herbicidal activity: 70%
[3]
  % herbicidal activity: 97%
[4]; A-1 20 g ai/ha
  % herbicidal activity: 77%
[4]; A-1 30 g ai/ha
  % herbicidal activity: 80%
Helanthus annuus (HELAN) [5]
  % herbicidal activity: 99%
Setaria faberi (SETFA)
  % herbicidal activity: 97%
Setaria viridis (SETVI)
  % herbicidal activity: 97%
Sorghum bicolor (SORVU) [6]
  % herbicidal activity: 93%
[7]
  % herbicidal activity: 98%
[8]; [25]
  % herbicidal activity: 42%
[8]; [26]
  % herbicidal activity: 64%
[8]; [27]
  % herbicidal activity: 74%
[9]; [26]
  % herbicidal activity: 85%
[9]; [28]
  % herbicidal activity: 82%
[9]; [29]
  % herbicidal activity: 67%
[10]; [30]
  % herbicidal activity: 90%
[10]; [26]
  % herbicidal activity: 85%
[10]; [28]
  % herbicidal activity: 77%
[10]; [29]
  % herbicidal activity: 67%
[11]
  % herbicidal activity: 77%
[12]
  % herbicidal activity: 97%
[13]; A-1 12.5 g ai/ha
  % herbicidal activity: 82%
[13]; A-1 25 g ai/ha
  % herbicidal activity: 85%
Eleusine indica (ELEIN) [14]; [31]
  % herbicidal activity: 18%
Eleusine indica (ELEIN) [14]; [32]
  % herbicidal activity: 78%
Eleusine indica (ELEIN) [14]; [33]
  % herbicidal activity: 55%
[15]; [34]
  % herbicidal activity: 93%
[15]; [35]
  % herbicidal activity: 80%
[15]; [28]
  % herbicidal activity: 87%
Glycine max (GLXMA) [16]
  % herbicidal activity: 98%
Zea mays (ZEAMX) [17]; A-1 20 g ai/ha
  % herbicidal activity: 72%
Zea mays (ZEAMX) [17]; A-1 30 g ai/ha
  % herbicidal activity: 88%
Eleusine indica (ELEIN) [18]
  % herbicidal activity: 27%
Glycine max (GLXMA) [19]
  % herbicidal activity: 90%
Helanthus annuus (HELAN) [20]
  % herbicidal activity: 93%
Sorghum bicolor (SORVU) [21]
  % herbicidal activity: 87%
Zea mays (ZEAMX) [22]; A-1 12.5 g ai/ha
  % herbicidal activity: 67%
Zea mays (ZEAMX) [22]; A-1 25 g ai/ha
  % herbicidal activity: 83%
